No end group written: not given here.
Assays:
S. aureus ATTC 10832 = assay: Planktonic cell growth inhibition assay (MIC50, liquid culture); type: cell-based, Staphylococcus aureus
Procedure: (§1) Growth inhibition assays were performed in 96-well microtiter plates as described previously (Chi and Holo, 2018, supra). Briefly, 135 μl of TSB were dispensed in each well of a microtiter plate (according to the number of bacterial strains tested) except in the wells of the first row. The antimicrobials were diluted in TSB to working concentrations in a final volume of 285 μl and dispensed in the wells of the first row. The working concentrations were 100 μg/μl for garvicin KS, 10 μg/μl for micrococcin P1 and 1 mg/ml for penicillin G. From the first row, 150 μl of the antimicrobials were then serially diluted (two-fold dilutions) in a sequential fashion until the last row of the plate. Finally, 15 μl of a fresh O/N culture of each strain were added in the appropriate wells to reach a final volume of 150 μl in each well. The plates were then incubated at 37° C. for 24 h. The growth inhibition was expressed as minimum inhibitory concentration (MIC50), which refers to the minimum concentration of the antimicrobial needed to reduce at least 50% of the microbial growth compared to the untreated control. The MIC50 was assessed by optical density readings at 600 nm (O.D.600).
(§2) Synergistic interactions between antimicrobials were determined using the fractional inhibition concentration (FIC). The FIC values were calculated as follows: the sum of the FIC =FICa+FICb+FICc, where the FICa means MIC of A in combination/MIC of A alone, FICb means MIC of B in combination/MIC of B, and FICc means MIC of C in combination/MIC of C alone. Effects were considered as synergistic if FIC was ≤0.5 for two components mixture and ≤0.75 for three components mixture.

S. aureus ATTC 29213 = assay: as above; type: cell-based, Staphylococcus aureus
Procedure: as §1, §2

S. aureus ATTC 33591 = assay: as above; type: cell-based, Staphylococcus aureus
Procedure: as §1, §2

S. aureus Newman = assay: as above; type: cell-based, Staphylococcus aureus
Procedure: as §1, §2

S. aureus USA 300 = assay: as above; type: cell-based, Staphylococcus aureus
Procedure: as §1, §2

S.a. 3255 = assay: as above; type: cell-based, Staphylococcus aureus
Procedure: as §1, §2

S. haemolyticus 4068 = assay: microbe, parasite or virus in culture; details: for MIC of the component in combination: 4068
Procedure: as §1, §2
(§3) Bacteriocins and antimicrobial assays. […] These bacteriocins were all solubilized in 0.1% (vol/vol) trifluoracetic acid (TFA; Sigma-Aldrich). […] Cell growth inhibition assays and antimicrobial synergy determination was performed in line with Example 1.
(§4) To investigate whether there was synergy between the three bacteriocins (K1-EJ, GarKS and MP1), a checkboard antimicrobial assay was performed. The selected strains were treated for 5, 24 and 48 h with a range of concentrations of K1-EJ, GarKS and MP1 alone or in different combinations.

S. haemolyticus 4069 = assay: microbe, parasite or virus in culture; details: for MIC of the component in combination: 4069
Procedure: as §1, §2, §3, §4

S. haemolyticus 4071 = assay: microbe, parasite or virus in culture; details: for MIC of the component in combination: 4071
Procedure: as §1, §2, §3, §4

S. haemolyticus 4072 = assay: microbe, parasite or virus in culture; details: for MIC of the component in combination: 4072
Procedure: as §1, §2, §3, §4

S. haemolyticus 4073 = assay: microbe, parasite or virus in culture; details: for MIC of the component in combination: 4073
Procedure: as §1, §2, §3, §4

[1] = garvicin KS + micrococcin P1 + penicillin G
[2] = Staphylococcus aureus, individual component, read-out: MIC50

For CC1(C)S[C@@H]2[C@H](NC(=O)Cc3ccccc3)C(=O)N2[C@H]1C(=O)O [Penicillin G], the MIC50 (S. aureus ATTC 10832; Staphylococcus aureus, ATTC10832, individual component, read-out: MIC50) was less than 7.8 µg/mL, the “MIC50 of the component in combination” value (S. aureus ATTC 10832; [1]) was less than 7.8 µg/mL and the “MIC50 of the component in combination” value (S. aureus ATTC 10832; garvicin KS + penicillin G) was less than 7.8 µg/mL. For the same compound, the MIC50 (S. aureus ATTC 29213; Staphylococcus aureus, ATTC29213, individual component, read-out: MIC50) was 130 µg/mL, the “MIC50 of the component in combination” value (S. aureus ATTC 29213; [1]) was 31 µg/mL and the “MIC50 of the component in combination” value (S. aureus ATTC 29213; garvicin KS + penicillin G) was 130 µg/mL. For the same compound, the MIC50 (S. aureus ATTC 33591; Staphylococcus aureus, ATTC33591, individual component, read-out: MIC50) was greater than 1000 µg/mL, the “MIC50 of the component in combination” value (S. aureus ATTC 33591; [1]) was 130 µg/mL and the “MIC50 of the component in combination” value (S. aureus ATTC 33591; garvicin KS + penicillin G) was 500 µg/mL. For the same compound, the MIC50 (S. aureus Newman; [2]) was less than 7.8 µg/mL, the “MIC50 of the component in combination” value (S. aureus Newman; [1]) was less than 7.8 µg/mL and the “MIC50 of the component in combination” value (S. aureus Newman; garvicin KS + penicillin G) was less than 7.8 µg/mL. For the same compound, the MIC50 (S. aureus USA 300; Staphylococcus aureus, USA300, individual component, read-out: MIC50) was greater than 1000 µg/mL, the “MIC50 of the component in combination” value (S. aureus USA 300; [1]) was 63 µg/mL and the “MIC50 of the component in combination” value (S. aureus USA 300; garvicin KS + penicillin G) was 250 µg/mL. The MIC50 (S.a. 3255; [2]) was less than 7.8 µg/mL, the “MIC50 of the component in combination” value (S.a. 3255; [1]) was less than 7.8 µg/mL and the “MIC50 of the component in combination” value (S.a. 3255; garvicin KS + penicillin G) was less than 7.8 µg/mL.
For “MKFKFNPTGTIVKKLTQYEINWYKQQYGRYPWERPVA [Hybrid K1-EJ]”, the MIC (S. haemolyticus 4068; 4068, 5 h) was 0.78 µg/mL, the MIC (S. haemolyticus 4068; 4068, 24 h) was greater than 100 µg/mL and the MIC (S. haemolyticus 4068; 4068, 48 h) was greater than 100 µg/mL. The “MIC of the component in combination” value (S. haemolyticus 4068; 5 h, K1-EJ + GarKS) was 0.83 µg/mL, the “MIC of the component in combination” value (S. haemolyticus 4068; 5 h, K1-EJ + GarKS + MP1) was 0.32 µg/mL and the “MIC of the component in combination” value (S. haemolyticus 4068; 5 h, K1-EJ + MP1) was 0.2 µg/mL. The “MIC of the component in combination” value (S. haemolyticus 4068; 24 h, K1-EJ + GarKS) was 3.1 µg/mL, the “MIC of the component in combination” value (S. haemolyticus 4068; 24 h, K1-EJ + GarKS + MP1) was 0.78 µg/mL and the “MIC of the component in combination” value (S. haemolyticus 4068; 24 h, K1-EJ + MP1) was 0.78 µg/mL. The “MIC of the component in combination” value (S. haemolyticus 4068; 48 h, K1-EJ + GarKS) was 6 µg/mL, the “MIC of the component in combination” value (S. haemolyticus 4068; 48 h, K1-EJ + GarKS + MP1) was 2.8 µg/mL and the “MIC of the component in combination” value (S. haemolyticus 4068; 48 h, K1-EJ + MP1) was 0.72 µg/mL. For the same compound, the MIC (S. haemolyticus 4069; 4069, 5 h) was 0.78 µg/mL, the MIC (S. haemolyticus 4069; 4069, 24 h) was 0.78 µg/mL and the MIC (S. haemolyticus 4069; 4069, 48 h) was greater than 100 µg/mL. The “MIC of the component in combination” value (S. haemolyticus 4069; 5 h, K1-EJ + GarKS) was 1.4 µg/mL, the “MIC of the component in combination” value (S. haemolyticus 4069; 5 h, K1-EJ + GarKS + MP1) was 0.68 µg/mL and the “MIC of the component in combination” value (S. haemolyticus 4069; 5 h, K1-EJ + MP1) was 1.5 µg/mL. The “MIC of the component in combination” value (S. haemolyticus 4069; 24 h, K1-EJ + GarKS) was 6 µg/mL, the “MIC of the component in combination” value (S. haemolyticus 4069; 24 h, K1-EJ + GarKS + MP1) was 3.3 µg/mL and the “MIC of the component in combination” value (S. haemolyticus 4069; 24 h, K1-EJ + MP1) was 23 µg/mL. The “MIC of the component in combination” value (S. haemolyticus 4069; 48 h, K1-EJ + GarKS) was 6.5 µg/mL, the “MIC of the component in combination” value (S. haemolyticus 4069; 48 h, K1-EJ + GarKS + MP1) was 5.8 µg/mL and the “MIC of the component in combination” value (S. haemolyticus 4069; 48 h, K1-EJ + MP1) was 48 µg/mL. The MIC (S. haemolyticus 4071; 4071, 5 h) was 0.78 µg/mL, the MIC (S. haemolyticus 4071; 4071, 24 h) was greater than 100 µg/mL and the MIC (S. haemolyticus 4071; 4071, 48 h) was greater than 100 µg/mL. The “MIC of the component in combination” value (S. haemolyticus 4071; 5 h, K1-EJ + GarKS) was 1.6 µg/mL, the “MIC of the component in combination” value (S. haemolyticus 4071; 5 h, K1-EJ + GarKS + MP1) was 0.72 µg/mL and the “MIC of the component in combination” value (S. haemolyticus 4071; 5 h, K1-EJ + MP1) was 0.42 µg/mL. For the same compound, the “MIC of the component in combination” value (S. haemolyticus 4071; 24 h, K1-EJ + GarKS) was 12 µg/mL, the “MIC of the component in combination” value (S. haemolyticus 4071; 24 h, K1-EJ + GarKS + MP1) was 1.6 µg/mL and the “MIC of the component in combination” value (S. haemolyticus 4071; 24 h, K1-EJ + MP1) was 1.4 µg/mL. The “MIC of the component in combination” value (S. haemolyticus 4071; 48 h, K1-EJ + GarKS) was 24 µg/mL, the “MIC of the component in combination” value (S. haemolyticus 4071; 48 h, K1-EJ + GarKS + MP1) was 3.3 µg/mL and the “MIC of the component in combination” value (S. haemolyticus 4071; 48 h, K1-EJ + MP1) was 3 µg/mL. It also gave an MIC (S. haemolyticus 4072; 4072, 5 h) of 0.78 µg/mL, an MIC (S. haemolyticus 4072; 4072, 24 h) greater than 100 µg/mL and an MIC (S. haemolyticus 4072; 4072, 48 h) greater than 100 µg/mL. For the same compound, the “MIC of the component in combination” value (S. haemolyticus 4072; 5 h, K1-EJ + GarKS) was 1.5 µg/mL, the “MIC of the component in combination” value (S. haemolyticus 4072; 5 h, K1-EJ + GarKS + MP1) was 0.68 µg/mL and the “MIC of the component in combination” value (S. haemolyticus 4072; 5 h, K1-EJ + MP1) was 0.36 µg/mL. For the same compound, the “MIC of the component in combination” value (S. haemolyticus 4072; 24 h, K1-EJ + GarKS) was 12 µg/mL, the “MIC of the component in combination” value (S. haemolyticus 4072; 24 h, K1-EJ + GarKS + MP1) was 1.6 µg/mL and the “MIC of the component in combination” value (S. haemolyticus 4072; 24 h, K1-EJ + MP1) was 1.5 µg/mL. For the same compound, the “MIC of the component in combination” value (S. haemolyticus 4072; 48 h, K1-EJ + GarKS) was 13 µg/mL, the “MIC of the component in combination” value (S. haemolyticus 4072; 48 h, K1-EJ + GarKS + MP1) was 5.8 µg/mL and the “MIC of the component in combination” value (S. haemolyticus 4072; 48 h, K1-EJ + MP1) was 1.6 µg/mL. For the same compound, the MIC (S. haemolyticus 4073; 4073, 5 h) was 0.78 µg/mL, the MIC (S. haemolyticus 4073; 4073, 24 h) was greater than 100 µg/mL and the MIC (S. haemolyticus 4073; 4073, 48 h) was greater than 100 µg/mL. The “MIC of the component in combination” value (S. haemolyticus 4073; 5 h, K1-EJ + GarKS) was 1.7 µg/mL, the “MIC of the component in combination” value (S. haemolyticus 4073; 5 h, K1-EJ + GarKS + MP1) was 0.33 µg/mL and the “MIC of the component in combination” value (S. haemolyticus 4073; 5 h, K1-EJ + MP1) was 0.2 µg/mL. For the same compound, the “MIC of the component in combination” value (S. haemolyticus 4073; 24 h, K1-EJ + GarKS) was 6.3 µg/mL, the “MIC of the component in combination” value (S. haemolyticus 4073; 24 h, K1-EJ + GarKS + MP1) was 0.78 µg/mL and the “MIC of the component in combination” value (S. haemolyticus 4073; 24 h, K1-EJ + MP1) was 0.36 µg/mL. For the same compound, the “MIC of the component in combination” value (S. haemolyticus 4073; 48 h, K1-EJ + GarKS) was 12 µg/mL, the “MIC of the component in combination” value (S. haemolyticus 4073; 48 h, K1-EJ + GarKS + MP1) was 1.6 µg/mL and the “MIC of the component in combination” value (S. haemolyticus 4073; 48 h, K1-EJ + MP1) was 0.85 µg/mL.

Reference: patent US20240041976A1, “COMPOSITION AND USE” (priority 2020, published 2024)
